Laboratory results reported in US20250275540A1, “USE OF PROTOPORPHYRINOGEN OXIDASE” (BEIJING DABEINONG BIOTECHNOLOGY CO., LTD., priority 2022, published 2025).

System: transgenic Arabidopsis thaliana T1 plants
Assay: Detection of the herbicide tolerance of the transgenic Arabidopsis thaliana plants
Format: in vivo
Settings: for The grade of pesticide damage/plant: 0 / The grade of pesticide damage/plant: 1 / The grade of pesticide damage/plant: 2 / The grade of pesticide damage/plant: 3: 7 DAT
Excerpt: The transformed Arabidopsis thaliana T1 plants were initially selected using glufosinate herbicide. The Arabidopsis thaliana T1 plants (PPOA-01) into which the PPOA-01 nucleotide sequence was introduced, the Arabidopsis thaliana T1 plants (PPOB-01) into which the PPOB-01 nucleotide sequence was introduced, the Arabidopsis thaliana T1 plants (PPOC-01) into which the PPOC-01 nucleotide sequence was introduced, the Arabidopsis thaliana T1 plants (PPOD-01) into which the PPOD-01 nucleotide sequence was introduced, the Arabidopsis thaliana T1 plants (PPOE-01) into which the PPOE-01 nucleotide sequence was introduced, the Arabidopsis thaliana T1 plants (PPOF-01) into which the PPOF-01 nucleotide sequence was introduced, the Arabidopsis thaliana T1 plants (PPO-AP-01) into which the PPO-AP-01 nucleotide sequence was introduced, and the Arabidopsis thaliana T1 plants (control vector) into which the control vector was introduced, the wild-type Arabidopsis thaliana plants (CK) (with 24 plants being included in each genotype) (18 days after sowing) were sprayed with saflufenacil at three concentrations (25 g ai/ha (one-fold field concentration, 1×), 100 g ai/ha (four-fold field concentration, 4×), and 0 g ai/ha (water, 0×)), oxyfluorfen at three concentrations (180 g ai/ha (one-fold field concentration, 1×), 720 g ai/ha (four-fold field concentration, 4×), and 0 g ai/ha (water, 0×)), and flumioxazin at three concentrations (60 g ai/ha (one-fold field concentration, 1×), 240 g ai/ha (four-fold field concentration, 4×), and 0 g ai/ha (water, 0×) to determine the tolerance of Arabidopsis thaliana to the herbicides. After 7 days of spraying (7 DAT), the damage level of each plant caused by the herbicide was evaluated according to the average of the damage levels (%) of plants (the average of the damage levels (%) of plants=the injured leaf area/the total leaf area×100%), i.e., the grade of pesticide damage: grade 0 means that the growth status of plants is essentially consistent with those sprayed with the blank solvent (water); grade 1 means that the average of the damage levels of plants is less than 10%; grade 2 means that the average of the damage levels of plants is greater than 10%; and grade 3 means that the average of the damage levels of plants is 100%. The plants having a growth status falling within grades 0 and 1 are classified as highly resistant plants; those having a growth status falling within grade 2 are classified as poorly resistant plants; and those having a growth status falling within grade 3 are classified as non-resistant plants.

[1] = genotype Control vector, 60 g ai/ha
[2] = genotype Control vector, 240 g ai/ha
[3] = genotype PPO-AP-01, 240 g ai/ha

C#CCN1C(=O)COc2cc(F)c(N3C(=O)C4=C(CCCC4)C3=O)cc21 [flumioxazin, 2-[7-fluoro-3,4-dihydro-3-oxo-4-(2-propynyl)-2H-1,4-benzoxazin-6-yl]-4,5,6,7-tetrahydro-1H-isoindole-1,3(2H)-dione]
effective dose distinguishing sensitive plants from plants having an average level of resistance (Arabidopsis thaliana): 60 g ai/ha
The grade of pesticide damage/plant: 0 (genotype CK, 60 g ai/ha): 0 plant
The grade of pesticide damage/plant: 1 (genotype CK, 60 g ai/ha): 0 plant
The grade of pesticide damage/plant: 2 (genotype CK, 60 g ai/ha): 0 plant
The grade of pesticide damage/plant: 3 (genotype CK, 60 g ai/ha): 24 plant
The grade of pesticide damage/plant: 0 (genotype CK, 240 g ai/ha): 0 plant
The grade of pesticide damage/plant: 1 (genotype CK, 240 g ai/ha): 0 plant
The grade of pesticide damage/plant: 2 (genotype CK, 240 g ai/ha): 0 plant
The grade of pesticide damage/plant: 3 (genotype CK, 240 g ai/ha): 24 plant
The grade of pesticide damage/plant: 0 [1]: 0 plant
The grade of pesticide damage/plant: 1 [1]: 0 plant
The grade of pesticide damage/plant: 2 [1]: 0 plant
The grade of pesticide damage/plant: 3 [1]: 24 plant
The grade of pesticide damage/plant: 0 [2]: 0 plant
The grade of pesticide damage/plant: 1 [2]: 0 plant
The grade of pesticide damage/plant: 2 [2]: 0 plant
The grade of pesticide damage/plant: 3 [2]: 24 plant
The grade of pesticide damage/plant: 0 (genotype PPO-AP-01, 60 g ai/ha): 0 plant
The grade of pesticide damage/plant: 1 (genotype PPO-AP-01, 60 g ai/ha): 0 plant
The grade of pesticide damage/plant: 2 (genotype PPO-AP-01, 60 g ai/ha): 0 plant
The grade of pesticide damage/plant: 3 (genotype PPO-AP-01, 60 g ai/ha): 24 plant
The grade of pesticide damage/plant: 0 [3]: 0 plant
The grade of pesticide damage/plant: 1 [3]: 0 plant
The grade of pesticide damage/plant: 2 [3]: 0 plant
The grade of pesticide damage/plant: 3 [3]: 24 plant
tolerance to the herbicide (in words) (genotype PPO-AP-01, four-fold field concentration): no tolerance
tolerance to the herbicide (in words) (genotype PPO-AP-01, one-fold field concentration): no tolerance
The grade of pesticide damage/plant: 0 (genotype PPOA-01, 60 g ai/ha): 24 plant
The grade of pesticide damage/plant: 1 (genotype PPOA-01, 60 g ai/ha): 0 plant
The grade of pesticide damage/plant: 2 (genotype PPOA-01, 60 g ai/ha): 0 plant
The grade of pesticide damage/plant: 3 (genotype PPOA-01, 60 g ai/ha): 0 plant
The grade of pesticide damage/plant: 0 (genotype PPOA-01, 240 g ai/ha): 18 plant
The grade of pesticide damage/plant: 1 (genotype PPOA-01, 240 g ai/ha): 6 plant
The grade of pesticide damage/plant: 2 (genotype PPOA-01, 240 g ai/ha): 0 plant
The grade of pesticide damage/plant: 3 (genotype PPOA-01, 240 g ai/ha): 0 plant
The grade of pesticide damage/plant: 0 (genotype PPOB-01, 60 g ai/ha): 24 plant
The grade of pesticide damage/plant: 1 (genotype PPOB-01, 60 g ai/ha): 0 plant
The grade of pesticide damage/plant: 2 (genotype PPOB-01, 60 g ai/ha): 0 plant
The grade of pesticide damage/plant: 3 (genotype PPOB-01, 60 g ai/ha): 0 plant
The grade of pesticide damage/plant: 0 (genotype PPOB-01, 240 g ai/ha): 18 plant
The grade of pesticide damage/plant: 1 (genotype PPOB-01, 240 g ai/ha): 6 plant
The grade of pesticide damage/plant: 2 (genotype PPOB-01, 240 g ai/ha): 0 plant
The grade of pesticide damage/plant: 3 (genotype PPOB-01, 240 g ai/ha): 0 plant
The grade of pesticide damage/plant: 0 (genotype PPOC-01, 60 g ai/ha): 24 plant
The grade of pesticide damage/plant: 1 (genotype PPOC-01, 60 g ai/ha): 0 plant
The grade of pesticide damage/plant: 2 (genotype PPOC-01, 60 g ai/ha): 0 plant
The grade of pesticide damage/plant: 3 (genotype PPOC-01, 60 g ai/ha): 0 plant
The grade of pesticide damage/plant: 0 (genotype PPOC-01, 240 g ai/ha): 24 plant
The grade of pesticide damage/plant: 1 (genotype PPOC-01, 240 g ai/ha): 0 plant
The grade of pesticide damage/plant: 2 (genotype PPOC-01, 240 g ai/ha): 0 plant
The grade of pesticide damage/plant: 3 (genotype PPOC-01, 240 g ai/ha): 0 plant
The grade of pesticide damage/plant: 0 (genotype PPOD-01, 60 g ai/ha): 24 plant
The grade of pesticide damage/plant: 1 (genotype PPOD-01, 60 g ai/ha): 0 plant
The grade of pesticide damage/plant: 2 (genotype PPOD-01, 60 g ai/ha): 0 plant
The grade of pesticide damage/plant: 3 (genotype PPOD-01, 60 g ai/ha): 0 plant
The grade of pesticide damage/plant: 0 (genotype PPOD-01, 240 g ai/ha): 24 plant
The grade of pesticide damage/plant: 1 (genotype PPOD-01, 240 g ai/ha): 0 plant
The grade of pesticide damage/plant: 2 (genotype PPOD-01, 240 g ai/ha): 0 plant
The grade of pesticide damage/plant: 3 (genotype PPOD-01, 240 g ai/ha): 0 plant
The grade of pesticide damage/plant: 0 (genotype PPOE-01, 60 g ai/ha): 22 plant
The grade of pesticide damage/plant: 1 (genotype PPOE-01, 60 g ai/ha): 2 plant
The grade of pesticide damage/plant: 2 (genotype PPOE-01, 60 g ai/ha): 0 plant
The grade of pesticide damage/plant: 3 (genotype PPOE-01, 60 g ai/ha): 0 plant
The grade of pesticide damage/plant: 0 (genotype PPOE-01, 240 g ai/ha): 23 plant
The grade of pesticide damage/plant: 1 (genotype PPOE-01, 240 g ai/ha): 0 plant
The grade of pesticide damage/plant: 2 (genotype PPOE-01, 240 g ai/ha): 0 plant
The grade of pesticide damage/plant: 3 (genotype PPOE-01, 240 g ai/ha): 1 plant
number of non-resistant plants (genotype PPOE-01, four-fold field concentration): 1 plant
tolerance to the herbicide (in words) (genotype PPOE-01, the other plants, four-fold field concentration): high-resistant tolerance
The grade of pesticide damage/plant: 0 (genotype PPOF-01, 60 g ai/ha): 24 plant
The grade of pesticide damage/plant: 1 (genotype PPOF-01, 60 g ai/ha): 0 plant
The grade of pesticide damage/plant: 2 (genotype PPOF-01, 60 g ai/ha): 0 plant
The grade of pesticide damage/plant: 3 (genotype PPOF-01, 60 g ai/ha): 0 plant
The grade of pesticide damage/plant: 0 (genotype PPOF-01, 240 g ai/ha): 18 plant
The grade of pesticide damage/plant: 1 (genotype PPOF-01, 240 g ai/ha): 6 plant
The grade of pesticide damage/plant: 2 (genotype PPOF-01, 240 g ai/ha): 0 plant
The grade of pesticide damage/plant: 3 (genotype PPOF-01, 240 g ai/ha): 0 plant
tolerance to the herbicide (in words) (genotypes PPOA-01 to PPOD-01 and PPOF-01, four-fold field concentration): high-resistant tolerance
tolerance to the herbicide (in words) (genotypes PPOA-01 to PPOF-01, one-fold field concentration): high-resistant tolerance
